Measurements: patent US12157730B2, “Heteroaryl derivative, method for producing same, and pharmaceutical composition comprising same as effective component” (VORONOI INC., priority 2019, dated 2024)

Target: T1, Ba/F3 cell EGFR Exon20 ins NPH (Homo sapiens, UniProt P00533, INS773NPH)
T1 construct: expressed in transfected cells; host or cells: Ba/F3
Assay: Ba/F3 cell proliferation suppression, EGFR Exon20 ins NPH
Format: cell-based
Conditions: GI50 class; Ba/F3 cell line with NPH inserted at Exon20 of EGFR; 72 hours
How it was run: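 Growth suppression determined as GI50 following 72 h exposure across 12 concentrations up to 50 um, with viability by luminescent ATP assay (CellTiter-Glo).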

| Ba/F3 (NPH) Activity | Compound |
| --- | --- |
| C (500 nM ≤ GI50 < 5000 nM) | C=CC(=O)Nc1cc(Nc2cc(N3OCC[C@H]3Cc3ccccc3)ncn2)c(OC)cc1N1CCN(C2CCN(C)CC2)CC1 [compound 974, N-(5-((6-((R)-3-benzylisoxazolidine-2-yl)pyrimidine-4-yl)amino)-4-methoxy-2-(4-(1-methylpiperidine-4-yl)piperazine-1-yl)phenyl)acrylamide] |
| A (GI50 < 50 nM) | C=CC(=O)Nc1cc(Nc2cc(N3OCC[C@@H]3c3c(F)ccc(F)c3Cl)ncn2)c(OC)cc1N1CCC(N2CCN(C3CC3)CC2)CC1 [compound 933, N-(5-((6-((R)-3-(2-chloro-3,6-difluorophenyl)isoxazolidine-2-yl)pyrimidine-4-yl)amino)-2-(4-(4-cyclopropylpiperazine-1-yl)piperidine-1-yl)-4-methoxyphenyl) acrylamide] |
| A (GI50 < 50 nM) | C=CC(=O)Nc1cc(Nc2cc(N3OCC[C@@H]3c3c(F)ccc(F)c3Cl)ncn2)c(OC)cc1N1CCC(N2C[C@@H]3C[C@H]2CO3)CC1 [compound 693, N-(2-(4-((1S,4S)-2-oxa-5-azabicyclo[2.2.1]heptane-5-yl)piperidine-1-yl)-5-((6-((R)-3-(2-chloro-3,6-difluorophenyl)isoxazolidine-2-yl)pyrimidine-4-yl)amino)-4-methoxyphenyl) acrylamide] |
| B (50 nM ≤ GI50 < 500 nM) | C=CC(=O)Nc1cc(Nc2cc(N3OCC[C@@H]3c3c(F)ccc(F)c3F)ncn2)c(OC)cc1N1CCN(C)CC1 [compound 629, N-(4-methoxy-2-(4-methylpiperazine-1-yl)-5-((6-((R)-3-(2,3,6-trifluorophenyl)isoxazolidine-2-yl)pyrimidine-4-yl)amino)phenyl)acrylamide] |
| A (GI50 < 50 nM) | C=CC(=O)Nc1cc(Nc2cc(N3OCC[C@@H]3c3ccc(Cl)c(Cl)c3)ncn2)c(OC)cc1N1CC[C@@H](N(C)C)C1 [compound 682, N-(5-((6-((R)-3-(3,4-dichlorophenyl)isoxazolidine-2-yl)pyrimidine-4-yl)amino)-2-((R)-3-(dimethylamino)pyrolidine-1-yl)-4-methoxyphenyl) acrylamide] |
| A (GI50 < 50 nM) | C=CC(=O)Nc1cc(Nc2cc(N3OCC[C@@H]3c3ccc(F)cc3F)ncn2)c(OC)cc1N1CCN(C(C)C)CC1 [compound 346, N-(5-((6-((R)-3-(2,4-difluorophenyl)isoxazolidine-2-yl)pyrimidine-4-yl)amino)-2-(4-isopropylpiperazine-1-yl)-4-methoxyphenyl) acrylamide] |
| A (GI50 < 50 nM) | C=CC(=O)Nc1cc(Nc2cc(N3OCC[C@@H]3c3ccc(Cl)c(Cl)c3)ncn2)c(OC)cc1N1C[C@H]2C[C@@H]1CN2CC [compound 676, N-(5-((6-((R)-3-(3,4-dichlorophenyl)isoxazolidine-2-yl)pyrimidine-4-yl)amino)-2-((1R,4R)-5-ethyl-2,5-diazabicyclo[2.2.1]heptane-2-yl)-4-methoxyphenyl) acrylamide] |
| A (GI50 < 50 nM) | C=CC(=O)Nc1cc(Nc2cc(N3OCC[C@@H]3c3ccc(Cl)c(F)c3)ncn2)c(OC)cc1N1CCOCC1 [compound 854, N-(5-((6-((R)-3-(4-chloro-3-fluorophenyl)isoxazolidine-2-yl)pyrimidine-4-yl)amino)-4-methoxy-2-morpholinophenyl) acrylamide] |
| A (GI50 < 50 nM) | C=CC(=O)Nc1cc(Nc2cc(N3OCC[C@@H]3Cc3cccc(Cl)c3F)ncn2)c(OC)cc1N1CCN(C2CC2)CC1 [compound 1017, N-(5-((6-((S)-3-(3-chloro-2-fluorobenzyl)isoxazolidine-2-yl)pyrimidine-4-yl)amino)-2-(4-cyclopropylpiperazine-1-yl)-4-methoxyphenyl) acrylamide] |
| A (GI50 < 50 nM) | C=CC(=O)Nc1cc(Nc2cc(N3OCC[C@@H]3c3ccc(F)cc3F)ncn2)c(OC)cc1N1CCC(N2CCN(CC3CC3)CC2)CC1 [Example 203, N-(2-(4-(4-(cyclopropylmethyl)piperazine-1-yl)piperidine-1-yl)-5-((6-((R)-3-(2,4-difluorophenyl)isoxazolidine-2-yl)pyrimidine-4-yl)amino)-4-methoxyphenyl) acrylamide] |
| A (GI50 < 50 nM) | C=CC(=O)Nc1cc(Nc2cc(N3OCC[C@@H]3c3cccc(F)c3)ncn2)c(OC)cc1N1CCN(CC)CC1 [Example 246, N-(2-(4-ethylpiperazine-1-yl)-5-((6-((R)-3-(3-fluorophenyl)isoxazolidine-2-yl)pyrimidine-4-yl)amino)-4-methoxyphenyl) acrylamide] |
| A (GI50 < 50 nM) | C=CC(=O)Nc1cc(Nc2cc(N3OCC[C@@H]3c3cccc(Cl)c3Cl)ncn2)c(OC)cc1N1CCC(N2CCN(CC3CC3)CC2)CC1 [Example 204, N-(2-(4-(4-(cyclopropylmethyl)piperazine-1-yl)piperidine-1-yl)-5-((6-((R)-3-(2,3-dichlorophenyl)isoxazolidine-2-yl)pyrimidine-4-yl)amino)-4-methoxyphenyl) acrylamide] |
| A (GI50 < 50 nM) | C=CC(=O)Nc1cc(Nc2cc(N3OCC[C@@H]3c3ccc(Cl)c(F)c3)ncn2)c(OC)cc1N1CCC(N2CCN(C3COC3)CC2)CC1 [Example 83, N-(5-((6-((R)-3-(4-chloro-3-fluorophenyl)isoxazolidine-2-yl)pyrimidine-4-yl)amino)-4-methoxy-2-(4-(4-(oxetane-3-yl)piperazine-1-yl)piperidine-1-yl)phenyl)acrylamide] |
| A (GI50 < 50 nM) | C=CC(=O)Nc1cc(Nc2cc(N3OCC[C@@H]3c3ccc(F)c(Cl)c3)ncn2)c(OC)cc1N1CC[C@@H](N(C)C)C1 [compound 756, N-(5-((6-((R)-3-(3-chloro-4-fluorophenyl)isoxazolidine-2-yl)pyrimidine-4-yl)amino)-2-((R)-3-(dimethylamino)pyrolidine-1-yl)-4-methoxyphenyl) acrylamide] |
| A (GI50 < 50 nM) | C=CC(=O)Nc1cc(Nc2cc(N3OCC[C@@H]3c3ccc(Cl)cc3F)ncn2)c(OC)cc1N1CCN(C)CC1 [compound 372, N-(5-((6-((R)-3-(4-chloro-2-fluorophenyl)isoxazolidine-2-yl)pyrimidine-4-yl)amino)-4-methoxy-2-(4-methylpiperazine-1-yl)phenyl)acrylamide] |
| A (GI50 < 50 nM) | C=CC(=O)Nc1cc(Nc2cc(N3OCC[C@@H]3c3cccc(F)c3F)ncn2)c(OC)cc1N1CCC(N2CCN(C3CC3)CC2)CC1 [Example 127, N-(2-(4-(4-cyclopropylpiperazine-1-yl)piperidine-1-yl)-5-((6-((R)-3-(2,3-difluorophenyl)isoxazolidine-2-yl)pyrimidine-4-yl)amino)-4-methoxyphenyl) acrylamide] |
| A (GI50 < 50 nM) | C=CC(=O)Nc1cc(Nc2cc(N3OCC[C@@H]3c3ccc(F)cc3F)ncn2)c(OC)cc1N1CCC(N(C)C)CC1 [compound 384, N-(5-((6-((R)-3-(2,4-difluorophenyl)isoxazolidine-2-yl)pyrimidine-4-yl)amino)-2-(4-(dimethylamino)piperidine-1-yl)-4-methoxyphenyl) acrylamide] |
| B (50 nM ≤ GI50 < 500 nM) | C=CC(=O)Nc1cc(Nc2cc(N3OCC[C@@H]3c3cccc(OC)c3)ncn2)c(OC)cc1N1CCN(C2COC2)CC1 [compound 730, N-(4-methoxy-5-((6-((R)-3-(3-methoxyphenyl)isoxazolidine-2-yl)pyrimidine-4-yl)amino)-2-(4-(oxetane-3-yl)piperazine-1-yl)phenyl) acrylamide] |
| C (500 nM ≤ GI50 < 5000 nM) | C=CC(=O)Nc1cc(Nc2cc(N3OCC[C@H]3c3c(F)cccc3F)ncn2)c(OC)cc1N1CCC(N(C)C)CC1 [compound 308, N-(5-((6-((S)-3-(2,6-difluorophenyl)isoxazolidine-2-yl)pyrimidine-4-yl)amino)-2-(4-(dimethylamino)piperidine-1-yl)-4-methoxyphenyl) acrylamide] |
| A (GI50 < 50 nM) | C=CC(=O)Nc1cc(Nc2cc(N3OCC[C@@H]3c3cccc(F)c3)ncn2)c(OC)cc1N1CCC(N2CCN(CC)CC2)CC1 [Example 248, N-(2-(4-(4-ethylpiperazine-1-yl)piperidine-1-yl)-5-((6-((R)-3-(3-fluorophenyl)isoxazolidine-2-yl)pyrimidine-4-yl)amino)-4-methoxyphenyl) acrylamide] |
| A (GI50 < 50 nM) | C=CC(=O)Nc1cc(Nc2cc(N3OCC[C@@H]3c3ccc(F)cc3F)ncn2)c(OC)cc1N1CCC(N2C[C@H]3C[C@@H]2CO3)CC1 [compound 423, N-(2-(4-((1R,4R)-2-oxa-5-azabicyclo [2.2.1]heptane-5-yl)piperidine-1-yl)-5-((6-((R)-3-(2,4-difluorophenyl)isoxazolidine-2-yl)pyrimidine-4-yl)amino)-4-methoxyphenyl) acrylamide] |
| A (GI50 < 50 nM) | C=CC(=O)Nc1cc(Nc2cc(N3OCC[C@@H]3c3ccc(F)c(Cl)c3F)ncn2)c(OC)cc1N1CCO[C@@H](C)C1 [compound 657, N-(5-((6-((R)-3-(3-chloro-2,4-difluorophenyl)isoxazolidine-2-yl)pyrimidine-4-yl)amino)-4-methoxy-2-((S)-2-methylmorpholino)phenyl)acrylamide] |
| A (GI50 < 50 nM) | C=CC(=O)Nc1cc(Nc2cc(N3OCC[C@@H]3Cc3cccc(Cl)c3OC)ncn2)c(OC)cc1N1CCC(N2CCN(C3CC3)CC2)CC1 [compound 1054, N-(5-((6-((S)-3-(3-chloro-2-methoxybenzyl)isoxazolidine-2-yl)pyrimidine-4-yl)amino)-2-(4-(4-cyclopropylpiperazine-1-yl)piperidine-1-yl)-4-methoxyphenyl) acrylamide] |
| A (GI50 < 50 nM) | C=CC(=O)Nc1cc(Nc2cc(N3OCC[C@@H]3c3cccc(F)c3)ncn2)c(OC)cc1N1C[C@H]2C[C@@H]1CO2 [compound 833, N-(2-((1R,4R)-2-oxa-5-azabicyclo[2.2.1]heptane-5-yl)-5-((6-((R)-3-(3-fluorophenyl)isoxazolidine-2-yl)pyrimidine-4-yl)amino)-4-methoxyphenyl) acrylamide] |
